Test results from patent US20240197928A1, “SODIUM-DEPENDENT GLUCOSE TRANSPORTER 2 AS A DIAGNOSTIC AND THERAPEUTIC TARGET FOR PRE-MALIGNANT LESIONS” (THE REGENTS OF THE UNIVERSITY OF CALIFORNIA, priority 2019, published 2024).

Experiments:
[1] = tested on: patient-derived xenografts of human LADC; test: Therapeutic trial in patient-derived xenografts of human LADC; type: in vivo, NSG mice
Text: Patient-derived xenografts. The tumor samples were obtained from surgically resected specimens after informed consent under the UCLA Lung SPORE (PDX #004 and #011) or the Long Beach Memorial Hospital Institutional Review Board protocol (PDX #013). One of the PDXs (#186) was purchased from the Jackson laboratories. PDXs were established and passaged in NSG mice. NSG mice were procured from the UCLA Radiation Oncology breeding colony. For each mouse, two small pieces of tumor tissue (4 mm^3) were implanted subcutaneously in the flank regions.
Patient-derived xenografts. The mice were randomized in two therapeutic groups (same as for the trials in GEMMs): placebo and canagliflozin (30 mg/kg per day) The number of mice per group was four for PDX #011, eight for PDX #013, three for PDX #004, and five for PDX #186; each mouse was inoculated with two tumors (one tumor on each flank). Some of the tumors of PDX #011 developed soft tissue metastases in the axillary regions, and these were counted as separate tumors. Overall, 38 tumors were included in the placebo and 39 tumors in the canagliflozin group. […] The tumor volumes at 2 weeks were counted as final tumor volumes.
Mice were imaged by Me4FDG and FDG PET/CT before treatment and 2 weeks after starting treatment. […] The mice were sacrificed, and the tumors were analyzed after 1 month of treatment. […]

[2] = tested on: lung tumors in KPluc mice; test: Therapeutic trials in the KPluc genetically engineered mouse model of LADC; settings: vs placebo
[3] = target: SGLT2 (Homo sapiens, UniProt P31639); settings: reference 39; cited from earlier work
[4] = tested on: patient-derived xenografts of human LADC; test: Me4FDG and FDG microPET in PDXs before and 2 weeks after the beginning of treatment; type: in vivo, NSG mice; settings: canagliflozin 30 mg/kg per day
Protocol: For the microPET in PDXs, a subset of the mice (PDXs #004, #013, and #186) received both Me4FDG and FDG PET scans the day before and 2 weeks after the beginning of treatment to evaluate the response of glucose transporter activity to the treatment.
The animals were anesthetized with 1.5% (v/v) isoflurane in oxygen, were given a dose of 100 μCi of Me4FDG or FDG via tail vein injection, and were maintained under anesthesia for 1 hour of unconscious uptake. The mice were then immobilized on the imaging bed and received a 10-min static PET scan followed by a CT scan. Each mouse received two different PET scans with the two tracers (Me4FDG and FDG) on consecutive days to allow for tracer decay. The equipments used were Focus 220 microPET scanner (Concorde Microsystems) and Inveon microPET scanner (Siemens) for the microPET scans and CrumpCAT (UCLA Crump Institute) for the microCT.
The PET data were analyzed with AMIDE software version 1.0.4 (amide.sourceforge.net/) (55). […] The percentage of injected dose for each ROI was calculated by dividing the measured activity in the ROI by the total injected dose, as measured from the PET image by designing an ROI encompassing the whole mouse. […] Briefly, we evaluated the background signal for each mouse by designing a ROI corresponding to the normal lung. We then calculated the CNR for each nodule by using the following formula (31)

## Cc1ccc([C@@H]2O[C@H](CO)[C@@H](O)[C@H](O)[C@H]2O)cc1Cc1ccc(-c2ccc(F)cc2)s1 [canagliflozin]
[1]; 30 mg/kg per day oral gavage for 1 month, four PDXs, P=0.003
  final tumor volumes lower than the control mice: about 47%
[1]; 95% confidence interval 0.36 to 0.80, P=0.003, adjusted for trial and mouse random effects
  geometric mean ratio of final tumor volumes, treated vs control: 0.53
[2]; 30 mg/kg per day oral gavage from 2 weeks after tumor induction, P<0.001
  Tumor burden estimated by bioluminescence imaging (BLI): significantly lower
[2]; 30 mg/kg per day oral gavage, P<0.001
  onset of tumors (BLI signal up to week 8): significantly delayed
[2]; at 8 weeks and in the survival cohort, P<0.05
  tumor burden by histological analysis of the lungs and measurement of tumor area: significantly lower tumor burden
[2]; treated until death, n=15 per group, P=0.0003
  mouse survival: significantly prolonged
[2]
  Ki67 proliferation rate in solid LADCs: not in solid LADCs
[2]; P=0.001
  Ki67 proliferation rate in premalignant lesions: significantly lower
[3]
  effectiveness as SGLT2 inhibitor compared with dapagliflozin: more effective SGLT2 inhibitor than dapagliflozin
[4]
  FDG signal from day 0 to day 14: did not significantly change
[4]; P<0.001
  Me4FDG uptake from day 0 to day 14: significantly reduced
